{
  "source": "patent EP2845863A1",
  "about": "“Mathanococcus jannaschii protease and its use” (Consejo Superior de Investigaciones Cientificas (CSIC), priority 2013, dated 2015)",
  "molecular_target": "T1, Methanococcus jannaschii selecase, wild type, SEQ ID No: 1 (Methanocaldococcus jannaschii, UniProt Q58610)",
  "T1 sequence (Q58610 1-110)": "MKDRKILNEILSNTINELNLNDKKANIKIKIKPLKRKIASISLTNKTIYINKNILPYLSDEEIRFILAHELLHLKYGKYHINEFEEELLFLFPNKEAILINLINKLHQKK",
  "experiment": "Inhibition assay with fluorogenic substrate Abz-E-L-A-Y-F-Y-P-E-K(dnp)",
  "format": "biochemical",
  "settings": "for activity at 100 µM: inhibitor 0.1 mM",
  "experimental": "Proteolytic activities were assayed at 37°C in buffer E (50 mM MES, 150 mM NaCl, pH 5.5), buffer F (50 mM HEPES, 150 mM NaCl, pH 7.5) or buffer G (50 mM CHES, 150 mM NaCl, pH 9.5) at a final protein concentration of 50 µg/ml unless otherwise stated.\nFor inhibition assays, selecase (at 2 µM in buffer F) was incubated for 30 min with different classes of protease inhibitors and the remaining proteolytic activity was then measured using the fluorogenic substrate Ab[…](dnp) at 37°C. Metal substitution assays were performed by removing the pre-existing metal upon purification through dialysis against 10 mM and 1 mM 1,10-phenanthroline and subsequent dialysis against 1 mM and 10 µM chloride or sulfate salt of a set of divalent metals, similarly as described above to obtain fully active protein. Metals tested were zinc, cobalt, magnesium, manganese, calcium, cadmium, copper, and nickel.",
  "key": {"[1]": {"settings": "inhibitor 1 mM, selecase 2 µM in buffer F (50 mM HEPES, 150 mM NaCl, pH 7.5), incubated 30 min with inhibitor, remaining activity at 37°C, no inhibitor = 100, mean of three, SD within ±5, read-out: Relative activity (%)"}, "[2]": {"settings": "selecase 2 µM in buffer F (50 mM HEPES, 150 mM NaCl, pH 7.5), incubated 30 min with inhibitor, remaining activity at 37°C, no inhibitor = 100, mean of three, SD within ±5, read-out: Relative activity (%)"}, "[3]": {"settings": "inhibitor 1 mM, selecase 2 µM in buffer F (50 mM HEPES, 150 mM NaCl, pH 7.5), incubated 30 min with inhibitor, remaining activity at 37°C, no inhibitor = 100, mean of three, SD within ±5"}},
  "note": "Like-named read-outs stand apart in the source and are kept apart here. Non-standard residues stand in square brackets, D forms with d. Residues, ends and D or L forms follow the SMILES beside them. *: point of attachment. Sta = CC(C)C[C@H](N)[C@@H](O)CC(=O)O; Isovaleryl = CC(C)CC(=O)*",
  "data": [
    {"smiles": "N=C(N)c1ccccc1", "note": "[Benzamidine]", "values": [
      {"measurement": "activity at 1000 µM", "setting": "[1]", "result": 66, "unit": "%"}
    ]},
    {"smiles": "CC(C)C[C@H](NC(=O)[C@H]1O[C@@H]1C(=O)O)C(=O)NCCCCNC(=N)N", "note": "[E-64]", "values": [
      {"measurement": "activity at 100 µM", "setting": "[2]", "result": 98, "unit": "%"}
    ]},
    {"smiles": "O=C(O)CN(CCN(CC(=O)O)CC(=O)O)CC(=O)O", "note": "[EDTA]", "values": [
      {"measurement": "activity at 1000 µM", "setting": "pH 7.5, read-out: Relative activity (%)", "result": 0, "unit": "%"}
    ]},
    {"smiles": "O=S(=O)(F)Cc1ccccc1", "note": "[PMSF]", "values": [
      {"measurement": "Relative activity (%)", "setting": "[3]", "result": 82, "unit": "%"}
    ]},
    {"smiles": "NCCc1ccc(S(=O)(=O)F)cc1", "note": "[Pefabloc]", "values": [
      {"measurement": "Relative activity (%)", "setting": "[3]", "result": 78, "unit": "%"}
    ]},
    {"smiles": "CC(C)CC(=O)N[C@H](C(=O)N[C@H](C(=O)N[C@@H](CC(C)C)[C@@H](O)CC(=O)N[C@@H](C)C(=O)N[C@@H](CC(C)C)[C@@H](O)CC(=O)O)C(C)C)C(C)C", "note": "[Pepstatin A] (Isovaleryl-VV[Sta]A[Sta]-OH)", "values": [
      {"measurement": "activity at 100 µM", "setting": "[2]", "result": 75, "unit": "%"}
    ]},
    {"smiles": "NC(=O)CI", "note": "[lodoacetamide]", "values": [
      {"measurement": "activity at 1000 µM", "setting": "[1]", "result": 79, "unit": "%"}
    ]}
  ]
}
